pIC50: −log10 of the molar value.
What was measured:
[1] = molecular target: T1, PDE3A catalytic domain (PDE3Acat) (Homo sapiens, UniProt Q14432); experiment: Phosphodiesterase inhibitory activity, PDE3 ([3H]cAMP, recombinant enzyme); format: biochemical; conditions: 30° C., 20 minutes, read-out: IC50(μmol/L) PDE3
T1 construct: made in house; host or cells: Sf9 insect cells (baculovirus, Bac-to-Bac / Gateway)

PDE4Bcat = molecular target: T2, PDE4Bcat (Homo sapiens, UniProt Q07343); experiment: Phosphodiesterase inhibitory activity, PDE4 ([3H]cAMP, recombinant enzyme); format: biochemical; conditions: 30° C., 20 minutes, read-out: IC50(μmol/L) PDE4
T2 construct: made in house; host or cells: Sf9 insect cells (baculovirus, Bac-to-Bac / Gateway)
T2 sequence (Q07343 330-659 limits assumed): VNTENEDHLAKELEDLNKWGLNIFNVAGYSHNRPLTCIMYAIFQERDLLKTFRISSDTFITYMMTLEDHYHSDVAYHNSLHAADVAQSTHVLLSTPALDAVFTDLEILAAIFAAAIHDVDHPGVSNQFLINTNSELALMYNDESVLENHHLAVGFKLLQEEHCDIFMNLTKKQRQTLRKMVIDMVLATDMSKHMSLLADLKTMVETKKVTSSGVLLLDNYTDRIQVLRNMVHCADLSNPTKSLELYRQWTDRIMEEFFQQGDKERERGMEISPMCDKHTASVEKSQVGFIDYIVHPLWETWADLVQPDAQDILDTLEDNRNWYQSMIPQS

T1 sequence (Q14432 674-1093 limits assumed): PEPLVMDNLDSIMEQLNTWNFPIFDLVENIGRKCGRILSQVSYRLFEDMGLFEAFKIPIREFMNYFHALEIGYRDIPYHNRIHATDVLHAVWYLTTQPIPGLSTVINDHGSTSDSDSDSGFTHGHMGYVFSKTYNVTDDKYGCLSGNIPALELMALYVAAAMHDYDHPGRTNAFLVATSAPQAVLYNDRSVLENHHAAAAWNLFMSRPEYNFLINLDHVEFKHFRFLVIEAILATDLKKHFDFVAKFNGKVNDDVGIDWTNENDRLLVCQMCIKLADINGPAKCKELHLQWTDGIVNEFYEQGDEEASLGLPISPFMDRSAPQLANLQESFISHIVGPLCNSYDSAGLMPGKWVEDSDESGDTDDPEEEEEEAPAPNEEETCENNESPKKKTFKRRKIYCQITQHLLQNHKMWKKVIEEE

Row | pIC50 [1] | pIC50 (PDE4Bcat) | SMILES
1 | 5.00 to 6.00 | > 7.00 | CCc1ccc2c(C3=NN(CCCCOc4ccc(C5=NNC(=O)CC5C)cc4)C(=O)CC3C)ccc(OC)c2n1 (single isomer, unassigned) [Example 341, 6-(2-Ethyl-8-methoxyquinolin-5-yl)-5-methyl-2-[4-[4-(4-methyl-6-oxo-1,4,5,6-tetrahydropyridazin-3-yl)phenoxy]butyl]-4,5-dihydro-2H-pyridazin-3-one]
2 | > 7.00 | 6.00 to 7.00 | CCc1ccc2c(-c3ccc(=O)n(CCCCOc4ccc(C5=NNC(=O)CC5C)cc4F)n3)ccc(OC)c2n1 (single isomer, unassigned; (+)) [Example 328, (+)-6-(2-Ethyl-8-methoxyquinolin-5-yl)-2-[4-[2-fluoro-4-(4-methyl-6-oxo-1,4,5,6-tetrahydropyridazin-3-yl)phenoxy]butyl]-2H-pyridazin-3-one]
3 | > 7.00 | > 7.00 | CCc1ccc2c(-c3ccc(=O)n(CCCCOc4ccc(C5=NNC(=O)CC5C)cc4F)n3)ccc(OC)c2n1 (single isomer, unassigned; (-)) [Example 329, (−)-6-(2-Ethyl-8-methoxyquinolin-5-yl)-2-[4-[2-fluoro-4-(4-methyl-6-oxo-1,4,5,6-tetrahydropyridazin-3-yl)phenoxy]butyl]-2H-pyridazin-3-one]
4 | 6.00 to 7.00 | 6.00 to 7.00 | COc1ccc(-c2ccc(=O)n(CCCCOc3ccc(C4=NNC(=O)CC4C)cc3)n2)c2ccc(C)nc12 (stereo not drawn) [Example 268, 6-(8-Methoxy-2-methylquinolin-5-yl)-2-[4-[4-(4-methyl-6-oxo-1,4,5,6-tetrahydropyridazin-3-yl)phenoxy]butyl]-2H-pyridazin-3-one]
5 | > 7.00 | 6.00 to 7.00 | COc1ccc(-c2ccc(=O)n(CCCCOc3ccc(C4=NNC(=O)CC4C)cc3)n2)c2ccc(C(C)C)nc12 (stereo not drawn) [Example 270, 6-(8-Methoxy-2-isopropylquinolin-5-yl)-2-[4-[4-(4-methyl-6-oxo-1,4,5,6-tetrahydropyridazin-3-yl)phenoxy]butyl]-2H-pyridazin-3-one]
6 | > 7.00 | > 7.00 | COc1ccc(-c2ccc(=O)n(CCCCOc3ccc(C4=NNC(=O)CC4)c(F)c3F)n2)c2cc(C(F)(F)F)oc12 [Example 274, 2-[4-[2,3-Difluoro-4-(6-oxo-1,4,5,6-tetrahydropyridazin-3-yl)phenoxy]butyl]-6-(7-methoxy-2-trifluoromethylbenzofuran-4-yl)-2H-pyridazin-3-one]
7 | > 7.00 | 6.00 to 7.00 | COc1ccc(-c2ccc(=O)n(CCCCOc3ccc(C4=NNC(=O)C4(C)C)c(F)c3F)n2)c2cc(C(F)(F)F)oc12 [Example 275, 2-[4-[2,3-Difluoro-4-(4,4-dimethyl-5-oxo-4,5-dihydro-1H-pyrazol-3-yl)phenoxy]butyl]-6-(7-methoxy-2-trifluoromethylbenzofuran-4-yl)-2H-pyridazin-3-one]
8 | > 7.00 | 6.00 to 7.00 | COc1ccc(-c2ccc(=O)n(CCCCOc3ccc(C4=NNC(=O)CC4C)c(F)c3F)n2)c2cc(C(F)(F)F)oc12 (stereo not drawn) [Example 276, 2-[4-[2,3-Difluoro-4-(4-methyl-6-oxo-1,4,5,6-tetrahydropyridazin-3-yl)phenoxy]butyl]-6-(7-methoxy-2-trifluoromethylbenzofuran-4-yl)-2H-pyridazin-3-one]
9 | > 7.00 | 6.00 to 7.00 | CCc1ccc2c(-c3ccc(=O)n(CCCCOc4ccc(C5=NNC(=O)CC5C)cc4)n3)ccc(OC)c2n1 (stereo not drawn) [Example 280, 6-(2-ethyl-8-Methoxyquinolin-5-yl)-2-[4-[4-(4-methyl-6-oxo-1,4,5,6-tetrahydropyridazin-3-yl)phenoxy]butyl]-2H-pyridazin-3-one]
10 | 6.00 to 7.00 | 6.00 to 7.00 | CCc1ccc2c(-c3ccc(=O)n(CCCCOc4ccc(C5=NNC(=O)CC5)cc4)n3)ccc(OC)c2n1 [Example 281, 6-(2-Ethyl-8-methoxyquinolin-5-yl)-2-[4-[4-(6-oxo-1,4,5,6-tetrahydropyridazin-3-yl)phenoxy]butyl]-2H-pyridazin-3-one]
11 | ≤ 5.00 | 6.00 to 7.00 | CCc1ccc2c(-c3ccc(=O)n(CCCCOc4ccc(C5=NNC(=O)C5(C)C)cc4)n3)ccc(OC)c2n1 [Example 282, 6-(2-Ethyl-8-methoxyquinolin-5-yl)-2-[4-[4-(4,4-dimethyl-5-oxo-4,5-dihydro-1H-pyrazol-3-yl)phenoxy]butyl]-2H-pyridazin-3-one]
12 | > 7.00 | 6.00 to 7.00 | CCc1ccc2c(-c3ccc(=O)n(CCCCOc4ccc(C5=NNC(=O)CC5)cc4F)n3)ccc(OC)c2n1 [Example 284, 6-(2-Ethyl-8-methoxyquinolin-5-yl)-2-[4-[2-fluoro-4-(6-oxo-1,4,5,6-tetrahydropyridazin-3-yl)phenoxy]butyl]-2H-pyridazin-3-one]
13 | 5.00 to 6.00 | 5.00 to 6.00 | CCc1ccc2c(-c3ccc(=O)n(CCCCOc4ccc(C5=NNC(=O)C5(C)C)cc4F)n3)ccc(OC)c2n1 [Example 285, 6-(2-Ethyl-8-methoxyquinolin-5-yl)-2-[4-[2-fluoro-4-(4,4-dimethyl-5-oxo-4,5-dihydro-1H-pyrazol-3-yl)phenoxy]butyl]-2H-pyridazin-3-one]
14 | ≤ 5.00 | 5.00 to 6.00 | CCc1ccc2c(-c3ccc(=O)n(CCCCOc4ccc(C5=NNC(=O)C5(C)C)cc4OC)n3)ccc(OC)c2n1 [Example 286, 6-(2-Ethyl-8-methoxyquinolin-5-yl)-2-[4-[2-methoxy-4-(4,4-dimethyl-5-oxo-4,5-dihydro-1H-pyrazol-3-yl)phenoxy]butyl]-2H-pyridazin-3-one]
15 | 5.00 to 6.00 | > 7.00 | CCc1ccc2c(C3=NN(CCCCOc4ccc(C5=NNC(=O)C5(C)C)cc4F)C(=O)CC3C)ccc(OC)c2n1 (stereo not drawn) [Example 302, 6-(2-Ethyl-8-methoxyquinolin-5-yl)-5-methyl-2-[4-[2-fluoro-4-(4,4-dimethyl-5-oxo-4,5-dihydro-1H-pyrazol-3-yl)phenoxy]butyl]-4,5-dihydro-2H-pyridazin-3-one]
16 | 5.00 to 6.00 | 5.00 to 6.00 | COc1ccc(-c2ccc(=O)n(CCCCOc3ccc(C4=NNC(=O)C4(C)C)c(F)c3F)n2)c2nc(C(F)(F)F)nn12 [Example 306, 2-[4-[2,3-Difluoro-4-(4,4-dimethyl-5-oxo-4,5-dihydro-1H-pyrazol-3-yl)phenoxy]butyl]-6-(5-methoxy-2-trifluoromethyl-[1,2,4]triazolo[1,5-a]pyridin-8-yl)-2H-pyridazin-3-one]
17 | > 7.00 | > 7.00 | COc1ccc(-c2ccc(=O)n(CCCCOc3ccc(C4=NNC(=O)CC4C)c(F)c3F)n2)c2sc(C(F)(F)F)nc12 (stereo not drawn) [Example 307, 2-[4-[2,3-Difluoro-4-(4-methyl-6-oxo-1,4,5,6-tetrahydropyridazin-3-yl)phenoxy]butyl]-6-(4-methoxy-2-trifluoromethylbenzothiazol-7-yl)-2H-pyridazin-3-one]
18 | > 7.00 | > 7.00 | COc1ccc(-c2ccc(=O)n(CCCCOc3ccc(C4=NNC(=O)CC4)c(F)c3F)n2)c2sc(C(F)(F)F)nc12 [Example 308, 2-[4-[2,3-Difluoro-4-(6-oxo-1,4,5,6-tetrahydropyridazin-3-yl)phenoxy]butyl]-6-(4-methoxy-2-trifluoromethylbenzothiazol-7-yl)-2H-pyridazin-3-one]
